Like-named read-outs stand apart in the source and are kept apart here.
Assays:
ASD phenotype 2 patients = conditions: wording of CGI-I rating
Description: (§1) The effects of sulforaphane containing Broccoli sprout extract was observed and quantified in 7 individuals suffering from ASD and previously classified as either phenotype 1 or phenotype 2 patients.
We describe a procedure consisting of an evaluation of patients with ASD prior and after administration of broccoli sprout extract. The extract was prepared from selected broccoli seeds known to have high yield of sulforaphane which were surface-disinfected and grown (sprouted) for 3 days in a commercial sprouting facility under controlled light and moisture conditions. A boiling water extract was prepared, filtered, cooled, and treated with the enzyme myrosinase (from daikon sprouts) to convert precursor glucosinolates to isothiocyanates. Behavioral evaluation of patients was performed prior, during and after administration of sulforaphane-containing broccoli sprout extract. Baseline evaluation of patients was performed using standard clinical endpoints (ADI-R subscales ADI-SI, ADI-C and ADI-RI).
Challenge regimen consisted of the administration of a Broccoli Sprout Extract dose corresponding to a total daily dosage of 4 μmol/kg of sulforaphane, administered in 3 doses over the course of the day. […]

ASD phenotype 1 patients = experiment: Nrf2-activator challenge test, ASD phenotype 1 patients (ADI-R, CGI-S, CGI-I); format: in vivo, human; conditions: selected patient cohort
Description: as §1
The extract was prepared from selected broccoli seeds known to have high yield of sulforaphane which were surface-disinfected and grown (sprouted) for 3 days in a commercial sprouting facility under controlled light and moisture conditions.

[1] = test system: lymphoblastoid cell lines of ASD phenotype 1 patients; experiment: Biolog Phenotype Mammalian MicroArray (PM-M) NADH/energy production, phenotype 1 cells; format: cell-based, human; conditions: cells exposed to the substance; AUC (Figure 1) and endpoint absorbance (Table 1)
Description: From all subjects, blood samples were collected and lymphoblastoid cell lines generated. Briefly, tubes containing anticoagulant citrate dextrose (ACD) were used to collect blood samples via venipuncture, in order to ensure that the blood cells remained metabolically active. The tubes were kept at room temperature and processed within 24 hours.
Cell lines were obtained by immortalization of lymphocytes from blood samples using Epstein-Barr virus.
Energy production of cells was measured using commercially available Phenotype Mammalian MicroArrays (PM-Ms, Biolog, Hayward, Calif., USA).
The compound in each well was designed to be used by the cells, either as the sole energy source or as the metabolic effector influencing the utilization of an energy source (α-D-glucose) added in the cell suspension. […] Before plating, cell viability and number were assessed utilizing a BioRad cell counter and a trypan blue dye. The concentration of live cells required for plating was 4×10^5 cells/mL, corresponding to 20,000 cells per well in a volume of 50 μL. […] Cells were incubated for 48 h at 37° C. in 5% CO2, using the modified Biolog IF-M1 medium.
The Biolog IF-M1 medium was modified for plates PM-M1 to M4 by adding the following to 100 mL of Biolog IF-M1: 1.1 mL of 100× penicillin/streptomycin solution, 0.16 mL of 200 mM glutamine (final concentration 0.3 mM), and 5.3 mL of Fetal Bovine Serum (FBS, final concentration 5%). For plates PM-M5 to M8, 5.5 mM α-D-glucose will be added in place of FBS.
During the 48-hour incubation, the only energy source the cells had was the chemical in the well. After this first incubation, Biolog Redox Dye Mix MB was added (10 μL/well) and the plates were incubated under the same conditions for an additional 24 hours. As the cells metabolized the energy source, tetrazolium dye in the media was reduced, producing a purple color according to the amount of NADH generated.
For the last 24 hours of the experiment, the plates were incubated in the Omnilog system, which collects optical density readings every 15 minutes, generating 96 data-points for each well. The system also elaborated the kinetic curve for the metabolic reaction in each well and extrapolated parameters such as slope, highest point, endpoint, area under the curve (AUC), and lag.
At the end of the 24-hour incubation, the plates were analyzed utilizing a microplate reader with readings at 590 and 750 nm. The first value (A590) indicated the highest absorbance peak of the redox dye and the second value (A750) gave a measure of the background noise. The relative absorbance (A590-750) was calculated per well.

Compound | NADH production of ASD phenotype 1 cells compared to TDs and non-phenotype 1 cells [1] | further results
C[S@@+]([O-])CCCCN=C=S [sulforaphane, 1-isothiocyanato-4R-(methylsulfinyl)butane] | – | Clinical significance (ASD phenotype 2 patients; Example 4 Patient 1 (phenotype 2)): Very much improved; Clinical significance (ASD phenotype 2 patients; Example 4 Patient 2 (phenotype 2)): Very much improved; reduction of disease severity as measured through the ADI-R, SRS and GGI-S/CGI-I (ASD phenotype 1 patients): not effective in reducing disease severity
FGF-1(aFGF): growth factor that selectively targets the PI3K-Akt-mTOR pathway | significantly reduced production of NADH | –
IGF-I: insulin-like growth factor 1 | no significant differences | –
IL-1beta: Th1 cytokine | significantly lower levels of NADH | –
IL-6: Th1 cytokine | significantly lower levels of NADH | –
PDGF-AB: platelet-derived growth factor AB | no significant differences | –
hGH(Somatotropin): growth factor that selectively targets the PI3K-Akt-mTOR pathway | significantly reduced production of NADH | –

— patent publication US11357871B2, “Challenge test for diagnosing subtypes of ASD” (Stalicla S.A., priority 2017, dated 2022)
